The nature of one data set: physchem. As to conditions: water.
For data set [1] the following is noted: under these conditions (20° C. and 70° C.), compared with water.

What is called solubility is the concentration that dissolves in the medium under given conditions.

In brackets after ≈: the same amount, converted by molar mass. A value given as a limit tells only on which side of the number the result lay.

Turning to `CSCC[C@H](N)C(=O)O` [methionine], the solubility in the data set “physchem” (20 °C) is roughly 30 mg/mL (≈ 201 mM); in the data set “physchem” (70 °C), greater than 90 mg/mL. Besides, the “solubility in the fermentation broth” value in data set [1] is “comparable order of magnitude”.

These data come from patent US7785846B2, “Method for the production of methionine” (Evonik Degussa GmbH, priority 2003, dated 2010).
